Reference: article PMC9454848, “BMS-986158, a Small Molecule Inhibitor of the Bromodomain and Extraterminal Domain Proteins, in Patients with Selected Advanced Solid Tumors: Results from a Phase 1/2a Trial” (Cancers, 2022)
Where “and” joins values, the source holds several entries; their conditions need not be identical. Equal values may be shown once. Entries after “also recorded” stand apart in the source; their conditions may differ. Marks after values point to notes of the source that are not given here.

Columns and labels:
[1] = test system: BET-regulated genes; assay: Transcriptional changes in matched pre- and on-treatment samples; type: in vivo, human; details: of >18,000 genes measured; Benjamini–Hochberg–adjusted p < 0.05; 41 patients
Method: Summary changes from baseline in the expression of BET-regulated genes were assessed in tumor tissues and blood collected at baseline and multiple on-treatment time points after BMS-986158 administration following the 3 dosing schedules. The study also assessed summary percent changes from baseline in expression of BET-regulated genes in peripheral blood and tumors (such as HEXIM1 and C-MYC). Tissue and peripheral blood samples (at baseline and on treatment) were collected for genomic, transcriptomic, and epigenetic analyses (by DNA or mRNA) to assess pharmacodynamic changes in BET-regulated genes. These samples were analyzed using whole-exome sequencing, real-time quantitative polymerase chain reaction, and RNA-sequencing methods.
All treated patients with available biomarker measurements at baseline and ≥1 time point were included in the biomarker analyses. Blood and tumor tissue samples were collected at baseline, during treatment, and at end of treatment for biomarker analysis. Markers of selected BET-regulated genes (e.g., HEXIM1) were analyzed with summary statistics for percent changes in expression from available matched pre- and on-treatment samples over time relative to baseline. Statistically significant changes in gene expression were determined using the Benjamini–Hochberg procedure to calculate an adjusted p value with an α level of 0.05.

[2] = test system: advanced solid tumors; assay: Preliminary antitumor activity (RECIST 1.1 best overall response, ORR, PFS, OS); type: in vivo, human
Method: Best overall response was defined as a complete response (CR), partial response (PR), stable disease (SD), or progressive disease per RECIST 1.1 (solid tumors). […] Patients who had SD or better as their best overall response were classified as having achieved clinical benefit. These criteria must have been met at 1 time point and ≥1 subsequent time point(s) (the first of which was within 28 days of the initial time point). PFS was determined as the time from the first dose of study medication to the date of the first objective documentation of tumor progression or death due to any cause. All treated patients who received ≥1 dose of BMS-986158 were evaluated in the safety population. […] All treated patients with available and sufficient serum or plasma samples for the corresponding analytes were included in the PK analyses. […] ECG parameters were evaluated in a categorical analysis, and linear mixed-effects regression modeling was used to describe the quantitative relationship between ΔQTcF and time-matched serum concentrations of BMS-986158 or its metabolite at a single dose. Descriptive summary statistics, including means and 95% CIs, were calculated using the Clopper-Pearson method for ORR and Kaplan–Meier method for PFS and OS. During dose escalation, an mTPI design targeted a 27% DLT rate to guide escalation decisions and the MTD selection. In the dose-escalation segment, the target enrollment was up to 30 patients per schedule and 3–13 DLT-evaluable patients at a dose level, with an aim to determine the MTD. The totality of the data, including PK, pharmacodynamics, and patient overall safety, including at lower dose levels, was also used to select the RP2D.

[3] = Schedule A (5 days on, 2 days off), n = 46
[4] = Schedule B (14 days on, 7 days off), n = 8
[5] = Schedule C (7 days on, 14 days off), n = 29

Cc1nnn(C)c1-c1cnc2c3ccc(C(C)(C)O)cc3n([C@H](c3ccccc3)C3CCOCC3)c2c1 [BMS-986158]
Genes with significant changes in expression [1]: 4500 | Patients with clinical benefit ([2]; 4.5-mg dose on schedule A (9/14)): 64% | OS rate ([2]; 6 months, Schedule A): 52.6% | OS rate ([2]; 6 months, Schedule C): 48.4% | OS rate, n (95% CI) ([2]; 6 months, Schedule A (5 days on, 2 days off), n = 46): 52.6% | OS rate, n (95% CI) ([2]; 6 months, Schedule C (7 days on, 14 days off), n = 29): 48.4% | OS rate ([2]; 12 months, Schedule A): 34.3% | OS rate ([2]; 12 months, Schedule C): 30.8% | OS rate, n (95% CI) ([2]; 12 months, Schedule A (5 days on, 2 days off), n = 46): 34.3% | OS rate, n (95% CI) ([2]; 12 months, Schedule C (7 days on, 14 days off), n = 29): 30.8% | PFS rate, range depending on treatment schedule ([2]; 24 weeks): 13.5–42.9% | PFS rate, n (95% CI) ([2]; 24 weeks, Schedule A (5 days on, 2 days off), n = 46): 18.1% | PFS rate, n (95% CI) ([2]; 24 weeks, Schedule B (14 days on, 7 days off), n = 8): 42.9% | PFS rate, n (95% CI) ([2]; 24 weeks, Schedule C (7 days on, 14 days off), n = 29): 13.5% | PFS rate, range depending on treatment schedule ([2]; 48 weeks): 6.8–14.3% | PFS rate, n (95% CI) ([2]; 48 weeks, Schedule A (5 days on, 2 days off), n = 46): 10.3% | PFS rate, n (95% CI) ([2]; 48 weeks, Schedule B (14 days on, 7 days off), n = 8): 14.3% | PFS rate, n (95% CI) ([2]; 48 weeks, Schedule C (7 days on, 14 days off), n = 29): 6.8% | Patients with clinical benefit ([2]; NUT carcinoma (4/7)): 57.1% | Best overall response unable to be determined ([2]; Schedule A): 17.4% | Stable disease rate ([2]; Schedule A): 26.1% | Best overall response by investigator: complete response [2, 3]: 0 n (%) | Best overall response by investigator: partial response [2, 3]: 2 (4.3) ^a n (%) | Best overall response by investigator: progressive disease [2, 3]: 24 (52.2) n (%) | Best overall response by investigator: stable disease [2, 3]: 12 (26.1) n (%) | Best overall response by investigator: unable to determine [2, 3]: 8 (17.4) ^b n (%) | Median OS (95% CI) [2, 3]: 7.52 (4.17–11.99) months | Median PFS (95% CI) [2, 3]: 8.29 (7.14–9.71) weeks | ORR (95% CI) [2, 3]: 2% | Patients with a partial response ([2]; Schedule A, 4.5-mg starting dose (ovarian cancer, NUT carcinoma)): 2 patients | Patients achieving clinical benefit ([2]; Schedule A, all doses): 30% and 30.4% | Best overall response unable to be determined ([2]; Schedule B): 12.5% | Stable disease rate ([2]; Schedule B): 37.5% | Best overall response by investigator: complete response [2, 4]: 0 n (%) | Best overall response by investigator: partial response [2, 4]: 0 n (%) | Best overall response by investigator: progressive disease [2, 4]: 4 (50.0) n (%) | Best overall response by investigator: stable disease [2, 4]: 3 (37.5) n (%) | Best overall response by investigator: unable to determine [2, 4]: 1 (12.5) ^c n (%) | Median OS (95% CI) [2, 4]: 9.23 (2.79–11.83) months | Median PFS (95% CI) [2, 4]: 8.43 (5.57–40.14) weeks | ORR (95% CI) [2, 4]: 0 (0.0–36.9) % | Best overall response unable to be determined ([2]; Schedule C): 17.2% | Stable disease rate ([2]; Schedule C): 31.0% | Best overall response by investigator: complete response [2, 5]: 0 n (%) | Best overall response by investigator: partial response [2, 5]: 0 n (%) | Best overall response by investigator: progressive disease [2, 5]: 15 (51.7) n (%) | Best overall response by investigator: stable disease [2, 5]: 9 (31.0) n (%) | Best overall response by investigator: unable to determine [2, 5]: 5 (17.2) ^d n (%) | Median OS (95% CI) [2, 5]: 5.32 (3.52–11.83) months | Median PFS (95% CI) [2, 5]: 9.00 (7.86–13.29) weeks | ORR (95% CI) [2, 5]: 0 (0.0–11.9) % | Patients with SD or better ([2]; across treatment schedules and doses (n = 26)): 31.3% | Patients with clinical benefit ([2]; adenoid cystic carcinoma (4/4)): 100% | Complete response ([2]; all schedules): No patients experienced a CR | Tumor marker CA 125 level after treatment initiation ([2]; one patient, ovarian cancer, 4.5 mg schedule A, 3032 U/mL prior to C1D1): decreased and remained stable; also recorded: decreased and stabilized | Duration of partial response on study treatment ([2]; one patient, serous papillary ovarian cancer, 4.5 mg schedule A): 155 days | Reduction in tumor burden ([2]; one patient, serous papillary ovarian cancer, 4.5 mg schedule A, PR at day 170): 35% | PFS, range depending on treatment schedule ([2]; schedules A, B, C): 8.29–9.00 weeks | Progressive disease as best response, range across treatment schedules ([2]; schedules A, B, C): 50.0–52.2% | Patients with clinical benefit ([2]; uveal melanoma (3/5)): 60%
